Results: patent US8337835B2, “Use of an endogenous ligand for peroxisome proliferator activated receptor alpha to treat liver disorders” (priority 2009, dated 2012)

Columns and labels:
PPARδ LBD = molecular target: T1, PPARδ LBD (Homo sapiens, UniProt Q03181); test: ALPHASCREEN binding assay, PPARδ ligand binding domain; conditions: 5 μM; compared with PPARδ activator GW0742
T1 construct: Identical experiments were performed using the PPARδ and PPARγ LBDs; 6xHis; made in house
T1 sequence (Q03181 211-439 limits assumed): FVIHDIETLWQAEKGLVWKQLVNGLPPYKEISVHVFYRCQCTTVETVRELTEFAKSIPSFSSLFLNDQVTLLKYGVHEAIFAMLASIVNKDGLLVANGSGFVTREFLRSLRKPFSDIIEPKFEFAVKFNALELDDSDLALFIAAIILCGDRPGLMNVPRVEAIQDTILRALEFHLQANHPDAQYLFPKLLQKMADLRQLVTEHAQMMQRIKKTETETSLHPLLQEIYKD
Protocol: Binding of 16:0/18:1-GPC and known agonists to the ligand binding domain (LBD) of PPARα in the presence of various peptide motifs was determined by ALPHASCREEN™ assay (Proc Natl Acad Sci USA 105, pp. 5034-5039, 2008). Experiments used 100 nM receptor LBD, purified as 6× His tag fusion proteins (Mol Cell 17, pp. 491-502, 2005), and 20 nM of N-terminal biotinylated CBP1 peptide or other coactivator peptides in the presence of 5 μg/ml donor and acceptor beads in 50 mM MOPS (pH 7.4), 100 mM NaCl, and 0.1 mg/ml BSA for 90 min at 25° C. Signals were generated in the absence or the presence of ligand. Identical experiments were performed using the PPARδ and PPARγ LBDs.
Stealth™ siRNA oligonucleotides were used to inhibit the gene expression of mouse ChPT1 ([…]) (SEQ ID NO: 1) and CEPT1 ([…]) (SEQ ID NO: 2) were from Invitrogen (Carlsbad, Calif.). […] Expression of ACO and CPT-1 was also assessed 24 h after addition of 50 μM 16:0/18:1-GPC in a subset of Hepa 1-6 cells previously treated with CEPT1 siRNA. mRNA levels are normalized to control L32 ribosomal mRNA. […] FIGS. 6F-H show the binding of various peptide motifs to the purified PPARα (FIG. 6F), PPARδ (FIG. 6G), and PPARγ (FIG. 6H) LBD in the presence of 5 μM of the corresponding PPAR agonist or 16:0/18:1-GPC as measured by AlphaScreen assays. […]

[1] = test system: PPARα-dependent genes ACO and CPT-1; test: Portal vein infusion, hepatic ACO and CPT-1 mRNA by RT-PCR; format: in vivo, mouse; conditions: 10 mg/kg intraportal three times a day
Protocol: Total RNA was extracted from Hepa 1-6 cells and liver using Trizol (Invitrogen) and treated with DNase I (RNase-free, Roche Molecular Biochemicals). Reverse transcription to cDNA and real-time quantitative PCR were performed using previously published procedures and primer-probe sequences for ACO and CPT-1 (Chakravarthy et al., 2005). RT-PCR for ChPT1 and CEPT1 was performed using the following primer-probe sets: ChPT1 (Forward, 5′-[…]-3′ (SEQ ID NO: 3); Reverse, 5′-[…]-3′ (SEQ ID NO: 4); Probe, 5′-[…]-3′ (SEQ ID NO: 5)); CEPT1 (Forward, 5′-TGCTGGACGGTCCCTTCTC-3′ (SEQ ID NO: 6); Reverse, 5′-[…]-3′ (SEQ ID NO: 7); Probe, 5′-[…]-3′ (SEQ ID NO: 8)). RNA not subjected to reverse transcription was included in each assay as a negative control. […] Relative mRNA levels were calculated using both the comparative CT and standard curve methods normalized to ribosomal protein L32, an invariant internal control. […]
The objectives were achieved by portal vein infusion of 1-palmitoyl-2-oleoyl-sn-glycerol-3-phosphocholine (16:0/18:1-GPC) to rescue PPARα^−/− mice from fatty liver disease or hepatic steatosis, liver tissue extraction, RT-PCR gene expression analysis of the extracted liver tissue and lipid and triglyceride assessment of the extracted liver tissue. […] Fat staining of liver is shown in FIG. 7C and liver triglyceride quantified in FIG. 7D. […]

CCCCCCCC/C=C\CCCCCCCC(=O)O[C@H](COC(=O)CCCCCCCCCCCCCCC)COP(=O)([O-])OCC[N+](C)(C)C [16:0/18:1-GPC, 1-palmitoyl-2-oleoyl-sn-glycerol-3-phosphocholine]
interaction with PPARδ (PPARδ LBD): insubstantial | hepatic ACO and CPT-1 expression ([1]; PPARα-deficient mice): not in PPARα-deficient mice | hepatic ACO and CPT-1 expression ([1]; control (C57/BL6) mice): increased
